The results in this text go back to patent US5459236A, “Vasoactive vasotocin derivatives” (Ferring AB, priority 1990, dated 1995).

Test [1] deals with anaesthetised Sprague Dawley rats, previously treated with dibenamine. The test can be described thus: Blood pressure (pressor) test, 4-point test against standard AVP. In kind it is in vivo. An excerpt: (§1) Vasotocin derivatives according to the invention have been tested for potency of both blood pressure and antidiuretic activity in a so-called 4-point test, i.e. the activity of the test substances has been related to a standard preparation (AVP=argininevasopressin), and the effects of two dose levels for each substance have been analysed. In addition, three pressor-specific VT derivatives according to our previous application SE 8703855-0 have been tested for a comparison, namely 1-Hmp-2-Phe-S-Orn-VT (compound 2 in Table 1), 1-Hmp-2-Phe-S-Dab-VT (compound 3 in Table 1), and 1-Hmp-2-Phe-S-Dab(Ala)-VT (compound 5 in Table 1).
Blood pressure tests were carried out on anaesthetised Sprague Dawley rats (about 250 g), previously treated with dibenamine (Dekanski, J., 1952. Br. J. Pharmacol. 7, 567). Maximal blood pressure increase after intravenous injections of peptide was used as a measure of the effect, expressed as intensity.
In addition to potency determination based-on effect intensity, a measure of the length of the effect has been stated (index of persistence (I.P.), Pliska, V., 1966. Arzheim. Forech. 16, 886). This dimensionless factor is a measure of the effect duration of the respective analog in relation to the standard AVP.
(§2) In these two tests, a comparison was made between the effects of the respective derivative and the effect of a standard preparation, AVP, and potency was determined with the aid of a 4-point test and is indicated in international units per micromole (IU/μmole) (Sturmer, E., in Handbook of Expermimental Pharmacology, 1966, Vol 23, pp 130-189).
The specificity in respect of blood pressure is indicated by the ratio of potency blood pressure/potency antidiuresis (BP/AD).

The subject of test [2] is anaesthetised water-loaded Sprague Dawley rats. The test can be described thus: Antidiuretic potency test, 4-point test against standard AVP. Type of test: in vivo. Conditions: maximal increase of urine conductivity after intravenous injection, 4-point test vs AVP.
From the text: as §1
Antidiuretic potency was determined with the aid of anaesthetised water-loaded Sprague Dawley rats (200 g) (Larsson, L. E., Lindeberg, G., Melin, P. and Pliska, V., 1978, J. Mad. Chem. 21, 353). Maximal increase of urine conductivity after intravenous injections was used as effect parameter.
as §2

`NC(=O)CC[C@@H]1NC(=O)[C@H](Cc2ccccc2)NC(=O)[C@H](Cc2ccc(O)cc2)NC(=O)[C@@H](N)CSSC[C@@H](C(=O)N2CCC[C@H]2C(=O)N[C@@H](CCCN=C(N)N)C(=O)NCC(N)=O)NC(=O)[C@H](CC(N)=O)NC1=O` [AVP, argininevasopressin]: the “BLOOD PRESSURE BP I.P (measure of duration of effect), index of persistence” value in test [1] (dimensionless, effect duration in relation to the standard AVP, intravenous) came out at 1.0. The “BLOOD PRESSURE BP potency” value in test [1] (maximal blood pressure increase after intravenous injection, 4-point test vs AVP, anaesthetised rats) turned out to be 614 ± 25 IU/μmole. Further, in test [1] (ratio of potency blood pressure/potency antidiuresis), the “BP/AD (measure of specificity)” value came to 1.0. In addition, in test [2], the “ANTIDIURESIS AD potency” value is 620 ± 54 IU/μmole.
